In US11980188B2, “Spiro cyclohexanedione derivates as herbicides” (SYNGENTA PARTICIPATIONS AG, priority 2018, dated 2024):

Columns and labels:
Assay in all cases: Glasshouse herbicide test, pre- and post-emergence, percentage damage
Type in all cases: in vivo
[1] = test system: Alopecurus myosuroides (ALOMY); details: 250 g/h, evaluated after 13 days, percentage damage on five point scale; for ALOMY POST: post-emergence; for ALOMY PRE: pre-emergence
Procedure: (§1) Seeds of a variety of test species are sown in standard soil in pots (Lolium perenne (LOLPE), Setaria faberi (SETFA), Alopecurus myosuroides (ALOMY), Echinochloa crus-galli (ECHCG), Avena fatua (AVEFA)). After cultivation for one day (pre-emergence) or after 8 days cultivation (post-emergence) under controlled conditions in a glasshouse (at 24/16° C., day/night; 14 hours light; 65% humidity), the plants are sprayed with an aqueous spray solution derived from the formulation of the technical active ingredient in acetone/water (50:50) solution containing 0.5% Tween 20 (polyoxyethelyene sorbitan monolaurate, CAS RN 9005-64-5). Compounds are applied at […]. The test plants are then grown in a glasshouse under controlled conditions in a glasshouse (at 24/16° C., day/night; 14 hours light; 65% humidity) and watered twice daily. After 13 days for pre and post-emergence, the test is evaluated for the percentage damage caused to the plant. The biological activities are shown in the following table on a five point scale (5=80-100%; 4=60-79%; 3=40-59%; 2=20-39%; 1=0-19%).

Avena fatua (AVEFA) = details: 250 g/h, evaluated after 13 days, percentage damage on five point scale; for AVEFA POST: post-emergence; for AVEFA PRE: pre-emergence
Procedure: as §1

[2] = test system: Echinochloa crus-galli (ECHCG); details: 250 g/h, evaluated after 13 days, percentage damage on five point scale; for ECHCG POST: post-emergence; for ECHCG PRE: pre-emergence
Procedure: as §1

Lolium perenne (LOLPE) = details: 250 g/h, evaluated after 13 days, percentage damage on five point scale; for LOLPE POST: post-emergence; for LOLPE PRE: pre-emergence
Procedure: as §1

Setaria faberi (SETFA) = details: 250 g/h, evaluated after 13 days, percentage damage on five point scale; for SETFA POST: post-emergence; for SETFA PRE: pre-emergence
Procedure: as §1

Structure (SMILES) | ALOMY POST [1] | ALOMY PRE [1] | AVEFA POST (Avena fatua (AVEFA)) | AVEFA PRE (Avena fatua (AVEFA)) | ECHCG POST [2] | ECHCG PRE [2] | LOLPE POST (Lolium perenne (LOLPE)) | LOLPE PRE (Lolium perenne (LOLPE)) | SETFA POST (Setaria faberi (SETFA)) | SETFA PRE (Setaria faberi (SETFA))
COc1cc(-c2ccc(F)cc2)cc(C)c1C1C(=O)CC2(CCN(OC)CC2)CC1=O [Compound A9] | 5 (5=80-100%) | 5 (5=80-100%) | 5 (5=80-100%) | 5 (5=80-100%) | 5 (5=80-100%) | 5 (5=80-100%) | 5 (5=80-100%) | 5 (5=80-100%) | 5 (5=80-100%) | 5 (5=80-100%)
Cc1cc(-c2ncc(F)cn2)cc(C)c1C1C(=O)CC2(CCN(C(=O)c3ccccn3)CC2)CC1=O [Compound A34] | 5 (5=80-100%) | 5 (5=80-100%) | 5 (5=80-100%) | 5 (5=80-100%) | 5 (5=80-100%) | 5 (5=80-100%) | 5 (5=80-100%) | 5 (5=80-100%) | 5 (5=80-100%) | 5 (5=80-100%)
Cc1cc(-c2ncc(F)cn2)cc(C)c1C1C(=O)CC2(CCN(C(=O)C(F)F)CC2)CC1=O [Compound A39] | 5 (5=80-100%) | 5 (5=80-100%) | 5 (5=80-100%) | 5 (5=80-100%) | 5 (5=80-100%) | 5 (5=80-100%) | 5 (5=80-100%) | 5 (5=80-100%) | 5 (5=80-100%) | 5 (5=80-100%)
Cc1cc(-c2ccc(F)cc2)cc(C)c1C1C(=O)CC2(CCN(C(=O)C(C)(C)C)CC2)CC1=O [Compound A61] |  | 5 (5=80-100%) | 4 (4=60-79%) | 2 (2=20-39%) | 5 (5=80-100%) | 5 (5=80-100%) | 5 (5=80-100%) | 5 (5=80-100%) | 5 (5=80-100%) | 5 (5=80-100%)
CC(=O)N1CCC2(CC1)CC(=O)C(c1c(C)cc(-c3ccc(C#N)cn3)cc1C)C(=O)C2 [Compound A14] | 5 (5=80-100%) | 5 (5=80-100%) | 5 (5=80-100%) | 5 (5=80-100%) |  | 5 (5=80-100%) | 5 (5=80-100%) | 5 (5=80-100%) | 5 (5=80-100%) | 5 (5=80-100%)
CCS(=O)(=O)N1CCC2(CC1)CC(=O)C(c1c(C)cc(-c3ncc(F)cn3)cc1C)C(=O)C2 [Compound A32] | 5 (5=80-100%) | 5 (5=80-100%) | 5 (5=80-100%) | 5 (5=80-100%) | 5 (5=80-100%) | 5 (5=80-100%) | 5 (5=80-100%) | 5 (5=80-100%) | 5 (5=80-100%) | 5 (5=80-100%)
COc1cc(-c2ccc(F)cc2)cc(OC)c1C1C(=O)CC2(CCN(C(C)=O)CC2)CC1=O [Compound A20] | 5 (5=80-100%) | 5 (5=80-100%) | 5 (5=80-100%) | 5 (5=80-100%) | 5 (5=80-100%) | 5 (5=80-100%) | 5 (5=80-100%) | 5 (5=80-100%) | 5 (5=80-100%) | 5 (5=80-100%)
COCC(=O)N1CCC2(CC1)CC(=O)C(c1c(C)cc(-c3ncc(F)cn3)cc1C)C(=O)C2 [Compound A35] | 5 (5=80-100%) | 5 (5=80-100%) | 5 (5=80-100%) | 5 (5=80-100%) | 5 (5=80-100%) | 5 (5=80-100%) | 5 (5=80-100%) | 5 (5=80-100%) | 5 (5=80-100%) | 5 (5=80-100%)
COc1cc(-c2ncc(F)cn2)cc(C)c1C1C(=O)CC2(CCN(C(C)=O)CC2)CC1=O [Compound A17] | 5 (5=80-100%) | 5 (5=80-100%) | 5 (5=80-100%) | 5 (5=80-100%) | 5 (5=80-100%) | 5 (5=80-100%) | 5 (5=80-100%) | 5 (5=80-100%) | 5 (5=80-100%) | 5 (5=80-100%)
